Measured values reported in patent US20160067277A1, “USE OF XENON FOR LIMITING TUMOR CELL MIGRATION” (L'Air Liquide, Societe Anonyme pour I'Etude et …, priority 2013, published 2016).

What was measured:
Assay type in all cases: cell-based, human
MDA-MB-231 cells [1] = assay: Oris cell migration test, fluorescence-labeled cells (RFU); details: for % cell migration relative to the control: MDA-MB-231 (ER-) cells, migration at 24 h, control atmosphere = 100%
Description: (§1) ER− and ER+ cancer cells (Estrogen Receptor) of a human adenocarcinoma (breast cancer), namely lines of MDA-MB-231 and MCF7 cells, were deposited on plates coated with collagen, where they adhered. These cell lines are available commercially.
(§2) The plates with the adhering cells were then placed in a sealed chamber, saturated, for 1 h, 3 h and 5 h, with: • either a control atmosphere (control), namely a gas mixture formed from 25% O2, 5% CO2 and 70% N2 (vol %); • or a test atmosphere based on xenon according to the invention, namely a gas mixture formed from 25% O2, 5% CO2 and 70% xenon (vol %).
(§3) For its part, cell migration at 24 h was determined after 24 hours, using fluorescence-labeled cells in the context of an Oris™ cell migration test. In this test, the labeled cells migrate into a target zone, where they are then quantified by a fluorescent plate reader for measuring the relative fluorescent units (RFU)).
(§4) More precisely, as already noted, several tests (3 or 4 tests) were conducted with the different gas atmospheres for different exposure times, and the results were expressed in the form of relative fluorescent units (RFU).
(§5) The migration of the cancer cells exposed to the atmosphere containing xenon was calculated as a percentage (%) relative to that of the cells exposed to the control atmosphere, i.e. exposed to an atmosphere without xenon (RFU fixed at 100%), and in the same conditions.
(§6) A two-way t-test for statistical analysis of the difference between the cell lines and the probability values P below 0.05 were considered significant.

MCF7 cells [2] = assay: as above; details: for % cell migration relative to the control: MCF7 (ER+) cells, migration at 24 h, control atmosphere = 100%
Description: as §1, §2, §3, §4, §5, §6

MDA-MB-231 cells [3] = assay: MTT cell survival test; details: 1 h, 3 h, 5 h exposure to 70% xenon, MTT after 24 hours
Description: as §1, §2
(§7) Cell survival was determined after 24 hours, using an MTT (for methylthaizolyldiphenyl-tetrazolium bromide) test. This test is a conventional test for determining cellular viability. It is based on detection of living cells only, via the activity of their mitochondrial dehydrogenases, which makes it possible to evaluate cytotoxicity, proliferation and/or cellular activation.

MCF7 cells [4] = assay: MTT cell survival test; details: 1 h, 3 h, 5 h exposure to 70% xenon, MTT after 24 hours
Description: as §1, §2, §7

[5] = 1 h exposure to 25% O2, 5% CO2, 70% xenon
[6] = 3 h exposure to 25% O2, 5% CO2, 70% xenon
[7] = 5 h exposure to 25% O2, 5% CO2, 70% xenon

[Xe] [xenon]
effect on cell migration (in words) (MDA-MB-231 cells [1]; ER- MDA-MB-231 cells, starting from 1 hour of exposure, FIG. 1): significantly reduces the migration | % cell migration relative to the control (MDA-MB-231 cells [1]; [5]): 59 ± 13% | % cell migration relative to the control (MDA-MB-231 cells [1]; [6]): 64 ± 10% | % cell migration relative to the control (MDA-MB-231 cells [1]; [7]): 71 ± 9% | effect on cell migration (in words) (MCF7 cells [2]; ER+ MCF7 cells, starting from 1 hour of exposure, FIG. 2): significantly reduces the migration | % cell migration relative to the control (MCF7 cells [2]; [5]): 58 ± 12% | % cell migration relative to the control (MCF7 cells [2]; [6]): 65 ± 12% | % cell migration relative to the control (MCF7 cells [2]; [7]): 65 ± 12% | effect on cell survival (MDA-MB-231 cells [3]): does not have a significant effect on cell survival | effect on cell survival (MCF7 cells [4]): does not have a significant effect on cell survival
